Measured values: US7715901B2, “Sensitized online BOLD-MRI imaging method” (Yeda Research and Development Co. Ltd., priority 2002, dated 2010)

Tests used:
M2R melanoma xenografts = assay: Follow up of tumor response after Pd-Bpheid PDT; assay type: in vivo, mouse
Protocol: (i) Animals, tumor model and PDT Male CD1 nude mice (30 g±2 g) were implanted s.c. with M2R melanoma xenografts. PDT of anesthetized mice was performed on tumors (7-9 mm in diameter), as previously described (Zilberstein et al., 2001), with slight changes to allow for manipulation inside the magnet during MRI recording, or to perform PDT on the anesthetized mouse placed on the microscope stage during IVM. Intravenous (i.v.) Pd-Bpheid administration (5 mg/kg in vehicle, provided by Negma-Lerads Laboratoires, Toussus Le-Noble, France) was immediately followed by fiber optic guided tumor illumination (light spot Ø=1 cm^2, 763 nm, 102 J/cm^2) for 10 minutes, using a 1 W diode laser (CeramOptec GmbH, Bonn, Germany). The experiments were performed inside the magnet during the MRI recording (see details below). Room temperature was kept constant (28° C.) throughout the experiments.
PDT was performed in three modes: (i) for tumor therapy, i.v. Pd-Bpheid administration was immediately followed by transcutaneous illumination; (ii) for MR imaging, Pd-Bpheid administration (by remotely activated i.v. catheterization) and transcutaneous illumination were performed inside the magnet (FIG. 5A); and (iii) for IVM, Pd-Bpheid administration and illumination of the semi-transparent mouse ear were conducted on top of the microscope stage.
Controls: Light control: illumination of tumors in mice administered with vehicle alone (without photosensitizer). Dark control, Pd-Bpheid administered to tumor-bearing mice without illumination. Mice were euthanized (CO2) to avoid tumor burden when tumors reached ≧10% of body weight. All experiments were conducted according to institutional animal welfare regulations.
Male CD1 nude mice, s.c. implanted with M2R melanoma xenografts were i.v.-injected with Pd-Bpheid (5 mg/kg) and instantly illuminated for 10 minutes (102 J/cm^2). Hemorrhagic tumor necrosis (10/11 mice within 24-48 h) was accompanied by a strong inflammatory response. Tumors in untreated (4/4) light (4/4 mice) or dark (4/4 mice) controls continued to grow reaching […] of body […] by 9±3 days. […]

[1] = system: M2R melanoma tumor blood vessels; assay: Immunohistochemistry of HNE-protein adducts (lipid peroxidation) in tumors after PDT; assay type: in vivo, mouse; settings: tumors dissected 1 hour after PDT
Description: (iii) Immunohistochemistry (IHC): Histological and immunohistological examinations were used for validation of the results obtained during the PDT experiments conducted by MRI and IVM. Dissected tumors were fixed in paraformaldehyde, and embedded in paraffin. IHC of PDT-induced LPO was based on immunodetection of HNE (4-hydroxynonenal), an aldehydic peroxidation product of polyunsaturated fatty acids that forms covalent adducts with proteins by reductive amination and/or Michael type addition (Uchida et al., 1995). PDT-damaged areas were visualized by IHC with anti-HNE. Thus, tumor sections were re-hydrated, blocked with bovine serum albumin for 4 h at 37° C., and treated with rabbit anti-HNE antiserum specifically recognizing HNE adducts (Calbiochem, La Jolla, Calif., USA, 1:400). HRP-conjugated goat anti-rabbit antibody served as 2nd antibody (Jackson, West Grove, Pa., USA) using 3-amino-9-ethylcarbazole as a chromogenic substrate (AEC, Sigma, St. Louis, Mo., USA).
Tumors were dissected 1 hour after PDT, fixed and prepared for IHC. […] In tumors taken from light controls (FIGS. 2B, 2E) or dark controls (data not shown), HNE staining was negative in blood vessels and was seen only in necrotic tumor core (spontaneous, PDT independent). FIGS. 2A, 2B and 2C are parallel adjacent sections of 2D, 2E and 2F, respectively, stained with hematoxylin-eosin.

[2] = system: mouse ear lobe blood vessels; assay: Fluorescent intravital microscopy of PDT-induced hemodynamic changes; assay type: in vivo
Protocol: (iv) Intravital microscopy (IVM). Fluorescent IVM was performed with an upright microscope (Nikon Optiphot 2, Kawasaki, Japan) equipped with a thermoregulated stage (37° C.), a CCD camera (50 fps, Applitech, Tel-Aviv, Israel) and a VCR (JVC model HR-J437MS, Yokohama, Japan) for video recording.
Fluorescent IVM in the nude mouse ear lobe (Proske et al, 2000) was used for analysis of changes in vascular diameter, vascular permeability and blood flow. RBC from a donor mouse were labeled ex vivo with 4-(4-(didecylamino)styryl)-N-methylpyridinium iodide (4-Di-10-ASP, 7.5 μg/ml, Molecular Probes, Eugene, Oreg., USA), as previously described (Neeman et al., 2001). The labeled RBC mixed with TRITC-dextran (256 KDa, 0.5 mg/mouse as blood-pool marker, Sigma, St. Louis, Mo., USA) were i.v. administered to the tumor-bearing mouse (labeled cells comprised 1.17+/−0.08% of host RBC as verified on blood smears) and allowed to circulate for 10 min prior to video recording (mag. ×100, 20 min), starting 5 min prior to Pd-Bpheid/light and ending 5 min after the light was turned-off. Mice were euthanized by CO2 at the end of the experiment.
Fluorescence images of blood vessels were acquired every 2 minutes, before, during and up to 10 minutes after illumination. Two hemodynamic parameters were digitally calculated (Scionimage software, Scion Corp., USA) from these images: (1) Changes in blood vessel diameter (arteriolar and venular), and (2) Extravascular leakage of TRITC-dextran (measured as changes in mean pixel intensity at an 2500 μm^2 extravascular region of interest). Both parameters are presented as % of initial value.
It was reported by us (Zilberstein et al., 2001) and others (Dolmans et al., 2002), that in course of anti-vascular PDT, rapid and intense hemodynamic alterations and stasis are observed in the treated tumor site. In this experiment, fluorescence IVM was used to correlate these hemodynamic changes with the MR signal alterations before, during and after Pd-Bpheid PDT. All IVM experiments were performed on the mouse ear lobe model (Proske et al., 2000), since blood vessels in this area can be easily visualized non-invasively under the microscope. Three hemodynamic parameters were measured: (1) changes in vessel diameter (vasoconstriction), (2) extravascular macromolecular leakage, and (3) red blood cell (RBC) flux. […] Significant changes in vessel diameter or RBC flux were not observed in control animals (FIGS. 3B, D and F). […] Changes in tumor perfusion were assessed before, during and after Pd-Bpheid PDT. Pd-Bpheid administration and immediate illumination of the mouse ear lobe, initiated a rapid decrease in perfusion rate both in arterioles and vennules (open and solid circles, respectively), reaching stasis within 3-4 min (FIG. 3C), while illumination alone had no significant effect (FIG. 3D).

human blood [3] = assay: Spectroscopic sPO2 of photosensitized blood
Protocol: sPO2 of photosensitized blood: Optical spectroscopy. Fresh human blood collected in Na-citrate was steered (37° C.) in a sealed optical cuvette (under N2) without or with Pd-Bpheid (100 μg/ml). Online spectroscopic sPO2 determination was performed with a LESA reflectance spectrometer (Biospec, Moscow, Russia) as described (Neeman et al., 2001). Recording was initiated 2 minutes prior to illumination. Ten illumination cycles (1 min each, 170 mW/cm^2) were performed with spectral measurements (8×5 sec) in the intervening periods when the light was turned-off.
For spectroscopic examination, fresh human blood was subjected to spectral analysis of sPO2 during PDT in vitro. […] Upon illumination, a rapid decline in sPO2 was observed reaching a plateau at ˜25% (≧2 minutes of illumination). In the absence of Pd-Bpheid, illumination had no effect.

human blood [4] = assay: T2* weighted MRI of photosensitized isolated blood (ex vivo); settings: for Decline in T2* weighted MR signal intensity of blood: untreated blood = 100%
Protocol: (c) Ex-vivo measurements: Freshly collected human blood in sodium citrate was spun down and re-suspended in autologous plasma to 0.6-0.7 hematocrit to minimize red blood cell (RBC) sedimentation during MRI experiments. Blood samples (500 μl) were placed in 6×50 mm glass tubes (Kimble, Div. of Owens, Ill., USA), sealed under N2 and each placed in a 3.5 ml optical plastic cuvette containing 2 ml of PBS. A proton volume coil was used (field of view 7 cm, slice thickness 2 mm, data was zero filled to matrix 512×512). Data were analyzed as the mean signal intensity of the blood sample relative to the surrounding phosphate-buffered saline (PBS).
For the MRI examination, we next determined the effect of PDT on sPO2 in isolated human blood, as manifested in T2* weighted MR signal intensity, under similar conditions. […] Thus, photosensitization of Pd-Bpheid in blood reduces sPO2 as reflected by a significant decrease in signal intensity of […] MR images in the absence of flow and volume changes.

M2R melanoma tumor = assay: Online BOLD-contrast MRI during solid tumor PDT; assay type: in vivo, mouse
Protocol: (a) Gradient echo (GE) and multiecho gradient echo (MEGE) MR images were acquired on a horizontal 4.7 T Bruker Biospec spectrometer (Rheinstetten, Germany), as described previously (Gilead et al., 1999). Imaging parameters are as follows: slice thickness 0.8 mm, TR 230 ms, TE 10 ms for GE and TE 10, 21.24 and 32.48 ms for MEGE, flip angel 40°, acquisition (AQ) time 117 sec, matrix 256×256 pixels.
(b) Animal studies: Whole body excitation coil and an RF decoupled 1.5 cm surface coil were used for improving signal/noise ratio (field of view 4 cm, slice thickness 0.8 mm). Mice were anesthetized, catheterized, and restrained by adhesive tape (supine/lateral) to locate the tumor above the center of the MRI surface coil; the laser optic fiber was fixed in place to illuminate the tumor area (FIG. 5A). After four sequential images were acquired, mice were treated i.v. with Pd-Bpheid (5 mg/kg) followed by 10 min illumination, while 11 more images were acquired. Room temperature was maintained at 28° C.
(d) Data analysis: MRI data was analyzed using Matlab (The MathWorks Inc., Natick, Mass., USA), Orisis (Version 4.0.9, Geneva, Switzerland) and Paravision 2.1.1 (Bruker, Rheinstetten, Germany). MR signal intensity was derived from each image, either from the region of interest inside the tumor or in control tissue, and normalized to the first image. Response maps were generated by division of each image by the average of the first 2 pre-PDT images. R2* maps were derived by noise weighted linear regression of log(SI), for each pixel. Only pixels with fit of R^2≧0.36 were analyzed. R2*: MRI relaxivity parameter; R^2: statistical correlation parameter.
Having shown that photosensitization of Pd-Bpheid induces changes in blood oxygen levels, we next attempted to detect such changes during PDT of a solid tumor in vivo, using MRI. BOLD-MR imaging was applied before, during and after PDT of the solid subcutaneous M2R melanoma tumor. Pd-Bpheid administration, followed by instant tumor illumination, induced a profound decrease in the MR signal intensity (25-40%) solely within the illuminated tumor area (FIGS. 5C, 6A and 6E). […] MR signal attenuation developed during the first 6-7 minutes of illumination and remained low throughout the experiment.
The MRI value ΔR2* (relaxivity difference in T2*-weighted acquisitions) is dependent only on changes in blood oxygenation and volume, and is not dependent on blood flow.

normal canine prostate = settings: dog, in vivo; cited from earlier work
[5] = system: melanoma, glioma, sarcoma and human prostate xenografts; settings: cited from earlier work; for Cure rates after anti-vascular PDT: mice and rats

Compound: CC[C@H]1c2cc3[n-]c4c(c3C)C(=O)[C@H](C(=O)OC)c4c3nc(cc4[n-]c(cc(n2)[C@@H]1C)c(C(C)=O)c4C)[C@@H](C)[C@@H]3CCC(=O)O.[Pd+2] [Pd-Bpheid, Palladium-bacteriopheophorbide]
- Hemorrhagic tumor necrosis (responding/treated mice) (M2R melanoma xenografts; 5 mg/kg i.v., instant illumination 10 min, 102 J/cm^2, within 24-48 h): 10/11
- Tumors continued to grow (dark control, Pd-Bpheid without illumination) (M2R melanoma xenografts; 5 mg/kg, no light): 4/4
- Tumor outcome in visual follow-up (M2R melanoma xenografts; one mouse, 5 mg/kg i.v., 763 nm, 102 J/cm^2, day 54 post treatment): cure
- HNE adduct immunostaining (ROS-induced LPO) [1]: massive generation of HNE adducts co-localized with tumor blood vessels
- Reduction in arteriolar diameter ([2]; 2-3 minutes after onset of illumination): about 50%
- Blood flow (RBC flux) ([2]; 2-6 minutes after onset of illumination): sharp decline in blood flow
- Time to complete blood stasis after onset of illumination ([2]; FIG. 3C): 6 to 7 min
- Time to stasis (perfusion rate in arterioles and venules) ([2]; FIG. 3C, immediate illumination of ear lobe): 3 to 4 min
- Extravascular TRITC-dextran (256 KDa) leakage, highest level ([2]; at end of illumination period, ± S.E.): 145±8 % of baseline
- sPO2 plateau upon illumination (human blood [3]; Pd-Bpheid 100 μg/ml, 170 mW/cm^2, ≧2 minutes of illumination): ~25%
- Decline in sPO2 (human blood [3]; within the first min of illumination, FIG. 4A): ~75%
- Decline in T2* weighted MR signal intensity of blood (human blood [4]; 1 min illumination): 38.1%
- Decline in T2* weighted MR signal intensity of blood (human blood [4]; 5 min illumination): 74.4%
- MR signal intensity of dark control blood (human blood [4]; Pd-Bpheid without light): essentially identical to that of untreated blood
- Decrease in MR signal intensity in illuminated tumor (M2R melanoma tumor; 5 mg/kg i.v., 10 min illumination): 25-40%
- Change in MR signal intensity, dark tumor control (M2R melanoma tumor; Pd-Bpheid without illumination, FIG. 6C): No detectable change in signal intensity
- Time to generation of photosensitized MR BOLD-contrast (M2R melanoma tumor; during PDT): ≤ 2 min
- Time over which MR signal attenuation developed (M2R melanoma tumor; from onset of illumination): 6 to 7 min
- Outcome of PDT in canine prostate (normal canine prostate): full necrosis of the tumor without functional urethral damage or damage to other adjacent tissues
- Incidence of metastasis compared with conventional surgery ([5]; Schreiber et al., 2002): decreased the incidence of metastasis
- Cure rates after anti-vascular PDT [5]: high cure rates

Compound: bacteriochlorophyll-serine [Bchl-Ser, reference compound]
- Cure rates after anti-vascular PDT [5]: high cure rates
